From patent publication US9663513B2, “Pyrimidine PDE10 inhibitors” (Merck Sharp & Dohme Corp., priority 2012, dated 2017)

Molecular target: human PDE10A2 (Homo sapiens (Human), UniProt Q9Y233)
Test: PDE10 fluorescence polarization (IMAP FP) inhibition assay
Assay type: biochemical
Settings: human PDE10A2 from transfected AD293 cells; FAM-labeled cAMP 50 nM; apparent inhibition constant; read-out: PDE10A Ki
Procedure, shortened: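 Cytoplasmic lysate of AD293 cells transiently expressing human PDE10A2 (enzyme level giving 20% conversion) incubated with 50 nM FAM-cAMP in pH 7.2 Tris/MgCl2 buffer, 30 min at room temperature. IMAP binding solution added, FP read after ≥1 h; 10-point 3-fold compound titrations fitted to a four-parameter equation.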

Chain of human PDE10A2 (Q9Y233 267-1055): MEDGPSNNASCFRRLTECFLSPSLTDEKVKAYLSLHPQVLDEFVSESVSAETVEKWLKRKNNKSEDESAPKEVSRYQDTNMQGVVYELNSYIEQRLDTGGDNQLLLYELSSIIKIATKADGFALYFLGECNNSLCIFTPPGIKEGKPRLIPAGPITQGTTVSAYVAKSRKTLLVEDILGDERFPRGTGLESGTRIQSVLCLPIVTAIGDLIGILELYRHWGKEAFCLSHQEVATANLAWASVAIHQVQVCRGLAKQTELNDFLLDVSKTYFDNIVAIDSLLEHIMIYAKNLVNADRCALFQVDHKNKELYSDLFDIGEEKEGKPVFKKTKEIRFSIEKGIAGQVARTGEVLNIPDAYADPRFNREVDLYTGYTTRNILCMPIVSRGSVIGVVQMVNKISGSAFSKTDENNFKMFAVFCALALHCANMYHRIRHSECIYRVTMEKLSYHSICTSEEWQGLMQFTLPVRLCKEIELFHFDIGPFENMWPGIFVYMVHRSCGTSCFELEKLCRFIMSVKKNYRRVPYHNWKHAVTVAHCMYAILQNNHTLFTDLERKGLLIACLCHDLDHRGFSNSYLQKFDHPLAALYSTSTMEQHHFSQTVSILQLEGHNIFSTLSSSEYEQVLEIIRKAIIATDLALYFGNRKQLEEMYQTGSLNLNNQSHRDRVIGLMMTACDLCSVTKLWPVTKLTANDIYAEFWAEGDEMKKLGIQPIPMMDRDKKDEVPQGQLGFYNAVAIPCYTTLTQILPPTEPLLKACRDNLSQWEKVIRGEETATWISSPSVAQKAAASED

Compound | Ki [nM]
CCc1ccc([C@@H]2C[C@@H]2COc2nc(C)ncc2[C@H]2CC[C@H](O)CC2)nc1 [Example 196, Trans-4-(4-(((1S,2R)-2-(5-ethylpyridin-2-yl)cyclopropyl)methoxy)-2-methylpyrimidin-5-yl)cyclohexanol] | 0.5
Cc1ncc(-c2ccc(CO)cc2)c(OC[C@H]2C[C@@H]2c2ccc3ccccc3n2)n1 (single isomer, unassigned) [Example 39] | 0.87
COc1ccc([C@H]2C[C@@H]2COc2nc(C)ncc2C2CCC3(CC2)OCCO3)nc1 [Example 188, 4-(((1S,2S)-2-(5-methoxypyridin-2-yl)cyclopropyl)methoxy)-2-methyl-5-(1,4-dioxaspiro[4.5]decan-8-yl)pyrimidine] | 2.84
CC[C@]1(O)CC[C@@H](c2cnc(C)nc2OC[C@H]2C[C@@H]2c2ccc(C)cn2)CC1 [Example 214, (cis)1-Ethyl-4-(2-methyl-4-(((1S,2S)-2-(5-methylpyridin-2-yl)cyclopropyl)methoxy)pyrimidin-5-yl)cyclohexanol] | 19.4
COc1ccc([C@H]2C[C@@H]2COc2nc(C)ncc2-c2cc(=O)[nH][nH]2)nc1 [Example 241, 5-(4-(((1S,2S)-2-(5-methoxypyridin-2-yl)cyclopropyl)methoxy)-2-methylpyrimidin-5-yl)-1,2-dihydropyrazol-3-one] | 0.9
Cc1ccc([C@H]2C[C@@H]2COc2nc(C)ncc2-c2cn(C)nc2C(F)F)nc1 [Example 125, 5-(3-(difluoromethyl)-1-methyl-1H-pyrazol-4-yl)-2-methyl-4-(((1S,2S)-2-(5-methylpyridin-2-yl)cyclopropyl)methoxy)pyrimidine] | 0.4
COc1cnccc1-c1cnc(C)nc1OC[C@H]1C[C@@H]1c1ccc(C)cn1 [Example 150, 5-(3-methoxypyridin-4-yl)-2-methyl-4-(((1S,2S)-2-(5-methylpyridin-2-yl)cyclopropyl)methoxy)pyrimidine] | 0.47
Cc1ncc(-c2ccc(C(C)O)cc2)c(OC[C@H]2C[C@@H]2c2ccc3ccccc3n2)n1 (single isomer, unassigned) [Example 34] | 0.01
Cc1ccc([C@H]2C[C@@H]2COc2nc(C)ncc2-c2cn(C)nc2C(O)C(F)F)nc1 (stereo partly drawn) [Example 170, 2,2-difluoro-1-(1-methyl-4-(2-methyl-4-(((1S,2S)-2-(5-methylpyridin-2-yl)cyclopropyl)methoxy)pyrimidin-5-yl)-1H-pyrazol-3-yl)ethanol] | 1.48
Cc1ccc([C@H]2C[C@@H]2COc2nc(C)ncc2-c2ccc(F)c(C)c2)nc1 [Example 9, 5-(4-fluoro-3-methylphenyl)-2-methyl-4-(((1S,2S)-2-(5-methylpyridin-2-yl)cyclopropyl)methoxy)pyrimidine] | 1.13
Cc1ccc([C@H]2C[C@@H]2COc2nc(C)ncc2-c2cc(F)cc(F)c2)nc1 [Example 7, 5-(3,5-difluorophenyl)-2-methyl-4-(((1S,2S)-2-(5-methylpyridin-2-yl)cyclopropyl)methoxy)pyrimidine] | 0.46
COc1cccc([C@H]2C[C@@H]2COc2nc(C)ncc2C2CCC(=O)CC2)n1 [Example 202, 4-(4-(((1S,2S)-2-(6-methoxypyridin-2-yl)cyclopropyl)methoxy)-2-methylpyrimidin-5-yl)cyclohexanone] | 2.96
COc1ccc([C@H]2C[C@@H]2COc2nc(C)ncc2-c2ccc(-c3nn[nH]n3)cc2)nc1 [Example 222, 5-(4-(1H-tetrazol-5-yl)phenyl)-4-(((1S,2S)-2-(5-methoxypyridin-2-yl)cyclopropyl)methoxy)-2-methylpyrimidine] | 0.1
CNC(=O)c1ccc(-c2cnc(C)nc2OC[C@H]2C[C@@H]2c2ccc(OC)cn2)cn1 [Example 103, 5-(4-(((1S,2S)-2-(5-methoxypyridin-2-yl)cyclopropyl)methoxy)-2-methylpyrimidin-5-yl)-N-methylpicolinamide] | 2.35
Cc1cccc([C@H]2C[C@@H]2COc2nc(C)ncc2-c2ccc(C(C)(C)O)nc2)n1 [Example 176, 2-(5-(2-methyl-4-(((1S,2S)-2-(6-methylpyridin-2-yl)cyclopropyl)methoxy)pyrimidin-5-yl)pyridin-2-yl)propan-2-ol] | 14.8
CCc1ccc([C@H]2C[C@@H]2COc2nc(C)ncc2-c2ccc(C(C)(C)O)nc2)nc1 (single isomer, unassigned) [Example 181] | 0.05
Cc1ncc(-c2ccc(C(C)O)cc2)c(OC[C@H]2C[C@@H]2c2ccc3ccccc3n2)n1 (single isomer, unassigned) [Example 35] | 1.05
COc1ccc([C@H]2C[C@@H]2COc2nc(C)ncc2-c2cnco2)nc1 [Example 255, 5-(4-(((1S,2S)-2-(5-methoxypyridin-2-yl)cyclopropyl)methoxy)-2-methylpyrimidin-5-yl)oxazole] | 7.7

Compound | Ki [nM]
CCOC(=O)[C@H]1CC[C@@H](c2cnc(C)nc2OC[C@H]2C[C@@H]2c2ccc(OC)cn2)CC1 [Example 216, cis-Ethyl4-(4-(((1S,2S)-2-(5-methoxypyridin-2-yl)cyclopropyl)methoxy)-2-methylpyrimidin-5-yl)cyclohexanecarboxylate] | 7.9
CCn1nnc(-c2ccc(-c3cnc(C)nc3OC[C@H]3C[C@@H]3c3ccc(OC)cn3)cc2)n1 [Example 225, 5-(4-(2-ethyl-2H-tetrazol-5-yl)phenyl)-4-(((1S,2S)-2-(5-methoxypyridin-2-yl)cyclopropyl)methoxy)-2-methylpyrimidine] | 1.42
COc1ccc(-c2cnc(C)nc2OC[C@H]2C[C@@H]2c2ccc3ccccc3n2)cc1 (single isomer, unassigned) [Example 29] | 1.66
Cc1ncc(-c2ccc(C(C)(C)O)nc2)c(OC[C@H]2C[C@@H]2c2ccc(C#N)cn2)n1 [Example 182, 6-((1S,2S)-2-((5-(6-(2-hydroxypropan-2-yl)pyridin-3-yl)-2-methylpyrimidin-4-yloxy)methyl)cyclopropyl)nicotinonitrile] | 17.8
Cc1ccc([C@H]2C[C@@H]2COc2nc(C)ncc2-c2ccc(C(F)(F)F)cc2)nc1 [Example 10, 2-methyl-4-(((1S,2S)-2-(5-methylpyridin-2-yl)cyclopropyl)methoxy)-5-(4-(trifluoromethyl)phenyl)pyrimidine] | 5.71
COc1ccc([C@H]2C[C@@H]2COc2nc(C)ncc2-c2ccc(-c3nnnn3C(F)F)cc2)nc1 [Example 228, 5-(4-(1-(difluoromethyl)-1H-tetrazol-5-yl)phenyl)-4-(((1S,2S)-2-(5-methoxypyridin-2-yl)cyclopropyl)methoxy)-2-methylpyrimidine] | 2.06
Cc1ncc(-c2ccc(C(C)(C)O)nc2)c(OC[C@H]2C[C@@H]2c2ccccn2)n1 [Example 123, 2-(5-(2-methyl-4-(((1S,2S)-2-(pyridin-2-yl)cyclopropyl)methoxy)pyrimidin-5-yl)pyridin-2-yl)propan-2-ol] | 1.09
COc1ccc([C@H]2C[C@@H]2COc2nc(C)ncc2-c2noc(CO)n2)nc1 [Example 256, (3-(4-(((1S,2S)-2-(5-methoxypyridin-2-yl)cyclopropyl)methoxy)-2-methylpyrimidin-5-yl)-1,2,4-oxadiazol-5-yl)methanol] | 29.9
COc1ccc([C@H]2C[C@@H]2COc2nc(C)ncc2C2CCC(=O)CC2)nc1 [Example 189, 4-(4-(((1S,2S)-2-(5-methoxypyridin-2-yl)cyclopropyl)methoxy)-2-methylpyrimidin-5-yl)cyclohexanone] | 3.75
Cc1ncc([C@@H]2CCC3(C[C@H]2O)OCCO3)c(OC[C@H]2C[C@@H]2c2ccc3ccccc3n2)n1 [Example 205, (7R,8S)-8-(2-methyl-4-(((1S,2S)-2-(quinolin-2-yl)cyclopropyl)methoxy)pyrimidin-5-yl)-1,4-dioxaspiro[4.5]decan-7-ol] | 7.08
COc1ccc([C@H]2C[C@@H]2COc2nc(C)ncc2-c2ccc(S(C)(=O)=O)nc2)nc1 [Example 63, 4-(((1S,2S)-2-(5-methoxypyridin-2-yl)cyclopropyl)methoxy)-2-methyl-5-(6-(methylsulfonyl)pyridin-3-yl)pyrimidine] | 2.95
COc1ccc([C@H]2C[C@@H]2COc2nc(C)ncc2-c2nn[nH]n2)nc1 [Example 234, 4-(((1S,2S)-2-(5-methoxypyridin-2-yl)cyclopropyl)methoxy)-2-methyl-5-(2H-tetrazol-5-yl)pyrimidine] | 9.43
COc1cc(-c2cnc(C)nc2OC[C@H]2C[C@@H]2c2ccc3ccccc3n2)cc2nccn12 [Example 131, 2-((1S,2S)-2-((5-(5-methoxyimidazo[1,2-a]pyridin-7-yl)-2-methylpyrimidin-4-yloxy)methyl)cyclopropyl)quinoline] | 0.04
Cc1ncc([C@H]2CC[C@H](O)CC2)c(OC[C@H]2C[C@H]2c2ccc3ccccc3n2)n1 [Example 192, Trans-4-(2-methyl-4-(((1S,2R)-2-(quinolin-2-yl)cyclopropyl)methoxy)pyrimidin-5-yl)cyclohexanol] | 0.01
COc1ccc([C@H]2C[C@@H]2COc2nc(C)ncc2-c2ccc(Br)cn2)nc1 [Example 86, 5-(5-bromopyridin-2-yl)-4-(((1S,2S)-2-(5-methoxypyridin-2-yl)cyclopropyl)methoxy)-2-methylpyrimidine] | 11.6
Cc1ccc([C@H]2C[C@@H]2COc2nc(C)ncc2-c2ccc(C(C)O)nc2)nc1 (stereo partly drawn) [Example 141, 1-(5-(2-methyl-4-(((1S,2S)-2-(5-methylpyridin-2-yl)cyclopropyl)methoxy)pyrimidin-5-yl)pyridin-2-yl)ethanol] | 0.24
Cc1ncc(-c2ccc(CO)nc2)c(OC[C@H]2C[C@@H]2c2ccc3ccccc3n2)n1 [Example 154, (5-(2-methyl-4-(((1S,2S)-2-(quinolin-2-yl)cyclopropyl)methoxy)pyrimidin-5-yl)pyridin-2-yl)methanol] | 0.01
CCn1nnc(-c2ccc(-c3cnc(C)nc3OC[C@H]3C[C@@H]3c3ccc(OC)cn3)cn2)n1 [Example 232, 5-(6-(2-ethyl-2H-tetrazol-5-yl)pyridin-3-yl)-4-(((1S,2S)-2-(5-methoxypyridin-2-yl)cyclopropyl)methoxy)-2-methylpyrimidine] | 0.77
